We go through two molecules from US20260232573A1, “DEGARELIX ORGANIC SOLVENT FORMULATIONS” (TOLMAR INTERNATIONAL LIMITED, priority 2023, published 2026).

Non-standard residues stand in square brackets, D forms with d. Residues, ends and D or L forms follow the SMILES beside them. *: point of attachment. dPhe(4-NHCONH2) = NC(=O)Nc1ccc(C[C@@H](N)C(=O)O)cc1; Dihydroorotyl(S) = O=C1C[C@@H](C(=O)*)NC(=O)N1; dPhe(4-Cl) = N[C@H](Cc1ccc(Cl)cc1)C(=O)O; Phe(4-NH2) = Nc1ccc(C[C@H](N)C(=O)O)cc1; d2Nal = N[C@H](Cc1ccc2ccccc2c1)C(=O)O; Lys(iPr) = CC(C)NCCCC[C@H](N)C(=O)O; d3Pal = N[C@H](Cc1cccnc1)C(=O)O

This series is classed as physicochemical. The text has this: Various organic solvents were screened for the maximal solubility of DgA-DS. […] Other solvents tested include-benzyl alcohol, PEG 300, propylene carbonate, triacetin, triethyl citrate, ethyl acetate, and benzyl benzoate.
Bulk solution: To produce the drug/solvent bulk solution comprising the active pharmaceutical ingredient (DgA or DgC), the desired amount of the DgA-DS or DgC-DS was combined with the solvent NMP or DMSO or combination of solvents with or without co-solvent or other additives, in the indicated amounts (see individual experiments below). The API and solvent were combined in a glass vial or jar and blanketed with nitrogen. Jars were mixed using the jar mill, Turbula, or shaker at room temperature until homogeneous. DgA or DgC are very soluble in NMP or DMSO and can load higher concentrations (at least 40% w/w).

Consider `CC(=O)N[C@H](Cc1ccc2ccccc2c1)C(=O)N[C@H](Cc1ccc(Cl)cc1)C(=O)N[C@H](Cc1cccnc1)C(=O)N[C@@H](CO)C(=O)N[C@@H](Cc1ccc(NC(=O)[C@@H]2CC(=O)NC(=O)N2)cc1)C(=O)N[C@H](Cc1ccc(NC(N)=O)cc1)C(=O)N[C@@H](CC(C)C)C(=O)N[C@@H](CCCCNC(C)C)C(=O)N1CCC[C@H]1C(=O)N[C@H](C)C(N)=O` [DgA-DS, degarelix acetate] (Ac-[d2Nal][dPhe(4-Cl)][d3Pal]S[Phe(4-NH2)](Dihydroorotyl(S))[dPhe(4-NHCONH2)]L[Lys(iPr)]P[dA]-NH2), for which the “concentration that can be loaded (solubility)” value was “at least 40 % w/w”; the solubility result is “either insoluble or has solubility limits much lower than NMP, DMSO or DMA”; the “solubility capacity of degarelix” value is 35-40 % w/w.

Turning to degarelix citrate [DgC], the “concentration that can be loaded (solubility)” value is on record as “at least 40 % w/w”.
